According to ChEMBL document CHEMBL1201862, “PubChem BioAssay data set” (2004):
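Exposure lasted 48 hours, with cells grown in 96-well plates and compounds tested at five concentrations. Abbreviation: GI50, concentration required for 50% inhibition of growth.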 Active and inactive are the calls of the source. Cut-off read from the data, not from the text of the source: active = GI50 up to about 1.1 µM and inactive = higher.

Assays:
Assay in all cases: NCI-60 cell line screen, 48 h
[1] = system: MDA-MB-231
[2] = system: MDA-MB-435
[3] = system: MCF7
[4] = system: DMS-273
[5] = system: DLD-1
[6] = system: HOP-18
[7] = system: XF498
[8] = system: DMS-114

Measured: GI50

N=C(N)SCCc1ccncc1
inactive: [1] > 100 µM | [2] > 100 µM | [3] > 100 µM

OC(CBr)C(O)C(O)C(O)CBr (configuration not stated)
inactive: [1] > 100 µM | [4] 26.6 µM | [2] > 61.2 µM | [5] > 100 µM | [6] > 100 µM | [7] 80.5 µM | [8] 42.4 µM

CCN(CC(=O)O)C(=O)c1cccnc1
inactive: [1] > 100 µM | [2] > 100 µM

COc1ccc(/C(Cl)=C(\C=O)c2ccc(Cl)c(Cl)c2)cc1
inactive: [4] 13.1 µM | [5] 10.7 µM | [6] 14.7 µM | [7] 10.8 µM | [8] 4.06 µM

CCOC(=O)c1c(N2CCCC2)[nH]c(=O)c(C(c2cccs2)c2c(O)c(C(=O)OCC)c(N3CCCC3)[nH]c2=O)c1O
inactive: [1] > 100 µM | [2] > 100 µM | [3] > 100 µM

Cc1nc2ccc(S(=O)(=O)NS(=O)(=O)c3ccc(-c4ccccc4)cc3)cc2c(=O)n1NS(=O)(=O)c1ccc(-c2ccccc2)cc1
inactive: [1] > 100 µM | [2] > 100 µM | [3] > 100 µM

COc1cc2c(cc1OC)C(=O)/C(=C/c1ccc(N(C)C)cc1)CC2
inactive: [1] > 10 µM | [2] > 10 µM | [3] > 10 µM

[O-][S+]1c2ccccc2N=C(c2ccc(Cl)cc2)CC1c1cccs1 (configuration not stated)
inactive: [4] 14.6 µM | [5] 12.2 µM | [6] 29.2 µM | [8] 14.6 µM

N#Cc1ccsc1Nc1ccccc1[N+](=O)[O-]
inactive: [1] 31.3 µM | [2] > 100 µM | [3] > 100 µM

COc1ccc(N2C(=O)C3c4[nH]c5c(C)cccc5c4C4CCC(C(C)C)CC4C3C2=O)cc1 (configuration not stated)
inactive: [1] 5.96 µM | [2] 7.03 µM | [3] 5.02 µM

O=S(=O)(Nc1ccccc1)c1ccc(-c2c3nc(c(-c4ccc(S(=O)(=O)Nc5ccccc5)cc4)c4ccc([nH]4)c(-c4ccc(S(=O)(=O)Nc5ccccc5)cc4)c4nc(c(-c5ccc(S(=O)(=O)Nc6ccccc6)cc5)c5ccc2[nH]5)C=C4)C=C3)cc1
inactive: [1] 24 µM | [2] > 31.6 µM | [3] > 31.6 µM

CC(=O)NC1CC2Oc3ccc(C)cc3C(C)(O2)C1O (configuration not stated)
inactive: [4] > 100 µM | [5] > 100 µM | [6] > 100 µM | [7] > 100 µM | [8] > 100 µM

Cc1ccc(C(=O)N/N=C2/C(=O)c3c4ccccc4cc4cccc2c34)cc1
inactive: [1] 37 µM | [2] 23.9 µM | [3] 2.3 µM

O=C(Nc1ccc(F)cc1)c1cc2c(cc1Cl)Sc1nccn1S2(=O)=O
inactive: [1] 38.2 µM | [2] 59.4 µM | [3] 77.8 µM

COc1ccc2c(c1)C(=O)CC(C(N)=O)C2 (configuration not stated)
inactive: [1] > 100 µM | [2] > 100 µM | [3] > 100 µM

C=COC(=O)N1C2CCCC(Cl)(C(C)=O)C1CC2 (configuration not stated)
inactive: [1] > 100 µM | [2] 58.9 µM | [3] > 100 µM

CCC(CC)C(=O)OC[n+]1ccc(-c2c(COC(=O)NC(C)C)c(COC(=O)NC(C)C)c3n2CCC3)cc1
inactive: [1] > 100 µM | [3] > 100 µM

CC(C)OP(=O)(OC(C)C)c1nc(-c2ccccc2)n(-c2ccc([N+](=O)[O-])cc2)n1
inactive: [4] > 100 µM | [5] > 100 µM | [7] > 100 µM | [8] > 100 µM

CCN1CCC(O)(c2ccc(Oc3ccc(C)cc3)cc2)C(C(=O)c2ccc(Oc3ccc(C)cc3)cc2)C1 (configuration not stated)
inactive: [1] 6.18 µM | [2] 11.6 µM | [3] 2.42 µM

FC(F)(F)C1(Cl)C(Cl)(c2ccccc2)C1(Cl)c1ccccc1 (configuration not stated)
inactive: [4] 14.9 µM | [5] 15.4 µM | [6] 11.1 µM | [7] 15.7 µM | [8] 15.6 µM

O=C1CCCSC(=O)N1Cc1ccccc1
inactive: [1] > 100 µM | [2] > 100 µM | [3] > 100 µM

C/C(Cl)=N\OC(=O)Nc1ccccc1C(F)(F)F
inactive: [1] 22.6 µM | [3] 14.9 µM

O=C(C/C=C/c1ccccc1)c1ccccc1
inactive: [2] 18 µM | [3] 15 µM

O=C1c2cc3c(cc2CC12Cc1cc4c(cc1C2)CCC4)CCC3
inactive: [1] > 100 µM | [2] > 100 µM | [3] > 100 µM

O=c1[nH]c(C2CCCCC2)nc2ccc(Cl)cc12
inactive: [4] > 100 µM | [8] > 100 µM

C=CCSc1nnc2cc(CN3CCCC3)c(-c3ccc(Cl)cc3)nn12
inactive: [1] 19.6 µM | [2] 20 µM | [3] 16.1 µM

COc1ccc(C(C2=C(O)COC2=O)c2cc3c(cc2O)OCO3)cc1OC (configuration not stated)
inactive: [1] > 100 µM | [2] > 100 µM | [3] > 100 µM

CCN(CC)CC1CCCCCCCCCCC1=O (configuration not stated)
inactive: [4] > 100 µM | [5] > 100 µM | [7] > 100 µM | [8] > 100 µM
